The source of these data is US20210223237A1, “COMPOSITIONS AND METHODS FOR STUDYING DRUG METABOLISM” (Boehringer Ingelheim International GmbH, priority 2020, published 2021).

The conditions of data set [1]: HLM 0.005 mg/ml.
A short description of data set [2]: in vitro. The conditions noted are these: human, pH 7.4.
The nature of data set [3]: in vitro. The conditions noted are these: human, microsomes.
Data set [4] can be described thus: in vitro. Conditions: human, microsomes. This is another data set of the same source.
For data set [5] the following is noted: in vivo; cited from earlier work.
Data set [6] in a line: Microsomal binding (fu,mic) using HLM-beads. Conditions: HLM-beads; HLM 1.0 mg/ml; compound 1.0 μM; (SD).
Data set [7] is described as follows: Non-specific binding of compounds to magnetizable beads alone. The conditions noted are these: 30 min incubation of beads (5.3×10^9 beads), bioanalysis of supernatant.
The next data set deals with CYP3A. Description: CYP3A-mediated midazolam 1′hydroxylation kinetics in HLM suspensions vs HLM-beads. More on the design: Km, times higher with HLM-beads than with HLM suspensions: unit not given beside the values. The conditions noted are these: for microsomal CLint / Km: human; for microsomal CLint: pH 7.4; for Km: pH 7.4, probe midazolam (1′-hydroxylation).
For data set [8] the following is noted: human, microsomes, 6 h, 1 μM.
For data set [9] the following is noted: cited from earlier work.

Where two headings read alike, the source gives them in different places.

The microsomal CLint is a measure of how fast metabolising enzymes remove a compound, apart from limits set by blood flow. For orientation: fraction unbound means the share of the substance not bound to proteins or other matrix. In general, Vmax refers to the top rate of the reaction or transport when substrate is in excess. Usually Km stands for the concentration of substrate that gives half-maximal velocity. By pKa is commonly meant the negative logarithm of the acid dissociation constant.

Turning to `Cc1ncc2n1-c1ccc(Cl)cc1C(c1ccccc1F)=NC2` [Midazolam, midazolam], the “depletion of parent midazolam” value in data set [1] (HLM suspensions, no new HLM added, up to 160 min) is given as “No perceptible depletion”. Further, the “metabolism of midazolam on exchange of used HLM-beads with fresh HLM-beads” value in data set [1] (HLM-bead relay every 20 minutes) is listed as “continued metabolism”. Also, in the data set “in vitro [2]”, the CLhep predicted at 1 μM is 9.47 mL/min/kg. The compound also returned a microsomal CLint at 1 μM in the data set “in vitro [2]” of 842 µL/min/mg. In “in vitro [3]”, this compound displayed a fraction unbound at 5 min, 1 μM of 0.76. In the data set “in vitro [4]”, the fraction unbound at 6 h, 1 μM came to 0.98. Further, the “blood clearance reported in the literature” value in [5] was 8.59 mL/min/kg. In data set [6], the “fu,mic” value was 0.53 (0.02). In data set [7], the “non-specific binding to the beads” value was “not observed”. Besides, the Vmax was 2002 ± 66 pmol/min/mg in the data set with CYP3A (HLM suspensions) and 4350 ± 249^sig pmol/min/mg with CYP3A (HLM-beads). Moreover, the “Km, times higher with HLM-beads than with HLM suspensions” value in the data set with CYP3A (HLM-beads vs HLM suspensions) was roughly 3 ×. In addition, the microsomal CLint in the data set on CYP3A (human liver microsomes (suspension)) is 2830 µL/min/mg; with CYP3A it was 2130 µL/min/mg. Moreover, the Km with CYP3A (human liver microsomes bound to beads (HLM-beads)) was 2.04 ± 0.23 µM; in the data set with CYP3A (human liver microsomes in suspension (no beads)), 0.612 ± 0.086 µM.

Take `CC(=O)CC(c1ccccc1)c1c(O)c2ccccc2oc1=O` (stereo not shown) [Warfarin, warfarin]: the “fu,mic” value in [8] is listed as 0.86 (0.08). In the data set “in vitro [4]”, the fraction unbound at 6 h, 1 μM is 0.94. In addition, in data set [9], the pKa is given as 5.0.
